Measurements published in ChEMBL document CHEMBL2074113, “Interaction of human organic anion transporters 2 and 4 with organic anion transport inhibitors” (J Pharmacol Exp Ther, 2002).

How the values were obtained:
[1] = target: T1, Solute carrier family 22 member 7 (Homo sapiens, UniProt Q9Y694); assay: TP_TRANSPORTER: inhibition of PGF2alpha uptake in OAT2-expressing S2 cells; assay type: functional, cell-based; conditions: for Activity: s2
T1 sequence (Q9Y694 whole entry): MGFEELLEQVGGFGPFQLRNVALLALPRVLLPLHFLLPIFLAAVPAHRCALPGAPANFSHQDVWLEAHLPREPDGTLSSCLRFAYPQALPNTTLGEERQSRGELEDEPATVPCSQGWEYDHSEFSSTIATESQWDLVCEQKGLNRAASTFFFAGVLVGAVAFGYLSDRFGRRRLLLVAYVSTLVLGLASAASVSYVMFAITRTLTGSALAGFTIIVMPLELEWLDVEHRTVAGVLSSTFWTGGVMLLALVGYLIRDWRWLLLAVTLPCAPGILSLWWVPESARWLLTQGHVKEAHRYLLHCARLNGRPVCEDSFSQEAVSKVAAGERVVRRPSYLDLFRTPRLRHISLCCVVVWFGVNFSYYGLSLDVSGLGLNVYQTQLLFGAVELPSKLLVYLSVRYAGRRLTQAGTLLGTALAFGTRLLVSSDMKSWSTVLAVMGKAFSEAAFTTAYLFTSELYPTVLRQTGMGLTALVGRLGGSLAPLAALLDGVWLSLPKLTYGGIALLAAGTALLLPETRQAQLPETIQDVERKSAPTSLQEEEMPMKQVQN

[2] = target: T2, Solute carrier family 22 member 11 (Homo sapiens, UniProt Q9NSA0); assay: TP_TRANSPORTER: inhibition of E1S uptake in OAT4-expressing S2 cells; assay type: functional, cell-based
T2 sequence (Q9NSA0 whole entry): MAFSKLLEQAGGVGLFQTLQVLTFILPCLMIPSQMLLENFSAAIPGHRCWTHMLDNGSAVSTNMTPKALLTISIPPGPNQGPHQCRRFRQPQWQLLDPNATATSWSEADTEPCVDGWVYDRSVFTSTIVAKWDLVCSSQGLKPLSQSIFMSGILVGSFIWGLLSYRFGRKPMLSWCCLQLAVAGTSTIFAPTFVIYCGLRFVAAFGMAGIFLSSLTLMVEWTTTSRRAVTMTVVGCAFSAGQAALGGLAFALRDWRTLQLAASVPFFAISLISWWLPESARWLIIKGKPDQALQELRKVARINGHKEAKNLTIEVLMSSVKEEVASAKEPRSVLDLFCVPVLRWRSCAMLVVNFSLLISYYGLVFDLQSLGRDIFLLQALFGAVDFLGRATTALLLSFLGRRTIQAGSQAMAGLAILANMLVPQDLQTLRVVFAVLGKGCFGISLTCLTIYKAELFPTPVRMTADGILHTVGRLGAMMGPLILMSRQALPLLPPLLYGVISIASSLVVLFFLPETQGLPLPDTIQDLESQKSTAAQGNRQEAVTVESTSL

Activity [1] | Ki [1] [µM] | Ki [2] [µM] | Structure (SMILES)
is not an inhibitor [-] | – | – | CC1(C)C[C@@H]1C(=O)N/C(=C\CCCCSC[C@H](N)C(=O)O)C(=O)O [CILASTATIN]
– | 766 | – | CCCN(CCC)S(=O)(=O)c1ccc(C(=O)O)cc1 [PROBENECID]
is not an inhibitor [-] | – | 502 | O=C(O)CCNC(=O)c1ccccc1 [BETAMIPRON]
is not an inhibitor [-] | – | 20.7 | CCCn1c(=O)c2[nH]c(C34CC5CC(CC3C5)C4)nc2n(CCC)c1=O [ROLOFYLLINE]
